From BindingDB's records for doi:10.1111/cbdd.12604 (Nanjing University, 2015)

Biological target: 72 kDa type IV collagenase (Homo sapiens, UniProt P08253)
Test: MMP-2 Inhibition Assay
Procedure: This esterase assay used 4-nitrophenylacetate as a substrate. Initially, the rhMMP-2 was diluted to 100 µg/mL with 1 mM APMA in assay buffer. Later, the reaction was incubated at 37℃ for 1 hour. Then the rhMMP-2 was diluted to 0.2 µg/mL in assay buffer, whereas the substrate was diluted to 20 µM by assay buffer. To each well of 96-well plate, 50 µL diluted rhMMP-2 was loaded along with 100 µL diverse concentration of test compounds. The reaction was started by adding 50 μL of 20 μM substrate to each well. After progress in kinetic mode for 5 minutes, the results were read at excitation and emission wavelengths of 320 nm and 405 nm, respectively.

Sequence of 72 kDa type IV collagenase (P08253 whole entry): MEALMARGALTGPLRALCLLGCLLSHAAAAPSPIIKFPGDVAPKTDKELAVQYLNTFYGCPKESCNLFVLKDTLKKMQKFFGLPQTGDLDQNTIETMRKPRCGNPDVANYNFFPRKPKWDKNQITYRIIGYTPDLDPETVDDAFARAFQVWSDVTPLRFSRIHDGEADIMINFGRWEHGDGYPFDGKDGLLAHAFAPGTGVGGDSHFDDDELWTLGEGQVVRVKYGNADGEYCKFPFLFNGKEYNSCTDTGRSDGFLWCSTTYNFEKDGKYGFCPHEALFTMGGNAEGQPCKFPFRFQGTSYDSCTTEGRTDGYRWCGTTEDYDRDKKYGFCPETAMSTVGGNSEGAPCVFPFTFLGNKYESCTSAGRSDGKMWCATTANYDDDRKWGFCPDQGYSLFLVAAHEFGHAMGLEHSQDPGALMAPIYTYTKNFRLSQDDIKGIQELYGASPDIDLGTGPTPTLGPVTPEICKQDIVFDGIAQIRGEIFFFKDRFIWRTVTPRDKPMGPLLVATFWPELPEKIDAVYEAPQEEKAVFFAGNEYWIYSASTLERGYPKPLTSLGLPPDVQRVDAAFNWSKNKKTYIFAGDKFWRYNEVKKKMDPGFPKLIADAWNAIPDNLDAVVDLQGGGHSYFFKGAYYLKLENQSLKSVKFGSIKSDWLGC

SMILES	IC50 [µM]
NS(=O)(=O)c1ccc(N2N=C(c3ccc(F)cc3)CC2c2ccccc2O)cc1 (stereo unspecified) [4-(5-(2-Hydroxyphenyl)-3-(4-fluorinatedphenyl)-4,5-dihydropyrazole) benzene sulfonamide (4x)]	24.7
NS(=O)(=O)c1ccc(N2N=C(c3ccc(Br)cc3)CC2c2cc(Br)ccc2O)cc1 (stereo unspecified) [4-(5-(5-Bromine-2-hydroxyphenyl)-3-(4-brominephenyl)-4,5-dihydropyrazole) benzene sulfonamide (4v)]	8.73
NS(=O)(=O)c1ccc(N2N=C(c3ccccc3)CC2c2ccc(Cl)cc2O)cc1 (stereo unspecified) [4-(5-(5-Chloro-2-hydroxyphenyl)-3-phenyl)-4,5-dihydro benzene sulfonamide pyrazole) (4j)]	13.5
COc1ccc(C2=NN(c3ccc(S(N)(=O)=O)cc3)C(c3ccccc3O)C2)cc1 (stereo unspecified) [4-(5-(2-Hydroxyphenyl)-3-(4-methoxyphenyl)-4,5-dihydropyrazole) benzene sulfonamide (4y)]	1.83
COc1ccc(C2=NN(c3ccc(S(N)(=O)=O)cc3)C(c3ccc(Cl)cc3O)C2)cc1 (stereo unspecified) [-(5-(5-Chloro-2-hydroxyphenyl)-3-(4-methylphenyloxygen)-4,5-dihydropyrazole) benzene sulfonamide (4l)]	4.62
COc1cccc(C2=NN(c3ccc(S(N)(=O)=O)cc3)C(c3ccccc3O)C2)c1 (stereo unspecified) [4-(5-(2-Hydroxyphenyl)-3-(3-oxygenmethylphenyl)-4,5-dihydropyrazole) benzene sulfonamide (4e)]	1.81
C[C@@]1(O)c2cccc(O)c2C(O)=C2C(=O)[C@]3(O)C(O)=C(C(N)=O)C(=O)C[C@@H]3C[C@@H]21 [(4aS,5aS,6S,12aR)-1,6,10,11,12a-pentahydroxy-6-methyl-3,12-dioxo-4,4a,5,5a-tetrahydrotetracene-2-carboxamide]	1.13
Cc1ccc(C2=NN(c3ccc(S(N)(=O)=O)cc3)C(c3ccccc3O)C2)cc1C (stereo unspecified) [4-(3-(3,4-Dimethylphenyl)-5-(2-hydroxyphenyl)-4,5-dihydropyrazole) benzene sulfonamide (4f)]	4.65
NS(=O)(=O)c1ccc(N2N=C(c3ccccc3Cl)CC2c2cc(Cl)ccc2O)cc1 (stereo unspecified) [4-(5-(5-Chloro-2-hydroxyphenyl) -3 - (2 - chlorobenzene) - 4, 5 - dihydropyrazole) benzene sulfonamide (4i)]	16.4
NS(=O)(=O)c1ccc(N2N=C(c3ccccc3)CC2c2cc(Br)ccc2O)cc1 (stereo unspecified) [4-(5-(5-Bromine-2-hydroxyphenyl)-3-phenyl-4,5-dihydropyrazole) benzene sulfonamide (4q)]	12.8
NS(=O)(=O)c1ccc(N2N=C(c3ccccc3Cl)CC2c2cc(Br)ccc2O)cc1 (stereo unspecified) [4-(5-(5-Bromine-2-hydroxyphenyl)-3-(2-chlorobenzene)-4,5-dihydropyrazole) benzene sulfonamide (4t)]	15
COc1cccc(C2=NN(c3ccc(S(N)(=O)=O)cc3)C(c3cc(Cl)ccc3O)C2)c1 (stereo unspecified) [4-(5-(5-Chloro-2-hydroxyphenyl)-3-(3-oxygenmethylphenyl)-4,5-dihydropyrazole) benzene sulfonamide (4p)]	2.13
COc1cccc(C2=NN(c3ccc(S(N)(=O)=O)cc3)C(c3cc(Br)ccc3O)C2)c1 (stereo unspecified) [4-(5-(5-Bromine-2-hydroxyphenyl)-3-(3-oxygenmethylphenyl)-4,5-dihydropyrazole) benzene sulfonamide (4r)]	3.23
NS(=O)(=O)c1ccc(N2N=C(c3ccccc3Cl)CC2c2ccccc2O)cc1 (stereo unspecified) [4-(3-(2-Chlorobenzene)-5-(2-hydroxyphenyl)-4,5-dihydropyrazole) benzene sulfonamide (4b)]	11.5
CCOc1ccc(C2=NN(c3ccc(S(N)(=O)=O)cc3)C(c3ccc(Cl)cc3O)C2)cc1 (stereo unspecified) [4-(5-(5-Chloro-2-hydroxyphenyl)-3-(4-phenylethyloxygen)-4,5-dihydropyrazole) benzene sulfonamide (4o)]	3.84
NS(=O)(=O)c1ccc(N2N=C(c3ccc(Cl)cc3)CC2c2cc(Br)ccc2O)cc1 (stereo unspecified) [4-(5-(5-Bromine-2-hydroxyphenyl)-3-(4-chlorobenzene)-4,5-dihydropyrazole) benzene sulfonamide (4u)]	15.8
NS(=O)(=O)c1ccc(N2N=C(c3ccc(Cl)cc3)CC2c2cc(Cl)ccc2O)cc1 (stereo unspecified) [4-(5-(5-Chloro-2-hydroxyphenyl)-3-(4-chlorobenzene)-4,5-dihydropyrazole) benzene sulfonamide (4k)]	11.3
NS(=O)(=O)c1ccc(N2N=C(c3ccc(Cl)c(Cl)c3)CC2c2ccccc2O)cc1 (stereo unspecified) [4-(3-(3,4-Dichlorobenzenebase)-5-(2-hydroxyphenyl)-4,5-dihydropyrazole) benzene sulfonamide (4g)]	12.9
NS(=O)(=O)c1ccc(N2N=C(c3ccc(Br)cc3)CC2c2cc(Cl)ccc2O)cc1 (stereo unspecified) [4-(3-(4-Brominephenyl)-5-(5-chloro-2-hydroxyphenyl)-4,5-dihydropyrazole) benzene sulfonamide (4m)]	18.9
NS(=O)(=O)c1ccc(N2N=C(c3ccc(Cl)c(Cl)c3)CC2c2cc(Br)ccc2O)cc1 (stereo unspecified) [4-(5-(5-Bromine-2-hydroxyphenyl)-3-(3,4-dichlorobenzene)-4,5-dihydropyrazole) benzene sulfonamide (4w)]	16.2
NS(=O)(=O)c1ccc(N2N=C(c3ccc(Cl)c(Cl)c3)CC2c2ccc(Cl)cc2O)cc1 (stereo unspecified) [4-(5-(5-Chloro-2-hydroxyphenyl)-3-(3,4-dichlorobenzenebase)-4,5-dihydropyrazole) benzene sulfonamide (4n)]	16.5
